Assay results reported in US6335350B1, “Acetamide and substituted acetamide-containing thiourea inhibitors of herpes viruses” (American Home Products Corporation, priority 1998, dated 2002).
Converted amounts (≈) assume the structure as drawn. Read-outs that look alike come from different tables or passages of the source.

Assays:
HCMV wild-type = assay: HCMV yield assay; assay type: cell-based, human cytomegalovirus; settings: Human betaherpesvirus 5, Fibroblast, read-out: IC50 Ug/ml HCMV
Description: Yield assay. Monolayer cultures of human foreskin fibroblasts are infected with HCMV wild-type, typically at a multiplicity of infection equal to 0.2, in the presence of inhibitor compound (varying concentrations). At three days post-infection, total virus produced in these cultures (i.e. virus yield) is assessed by harvesting and titering the virus in 12-well plates of cultured human foreskin fibroblasts (done in the absence of inhibitor). Plaques are quantified at 2 weeks post-infection. An inhibitor of HCMV is identified by the reduction in titer of virus yield in the presence, compared to the titer in the absence of compound. In this assay, the relative anti-HCMV activity of an inhibitor is typically determined by calculating the IC50 or IC90 value, that is, the amount of compound required to reduce the virus yield by 50% or 90%, respectively. Table I describes IC50 data for compounds tested against HCMV.

HSV-1 = assay: HSV Antiviral (ELISA) Assay; assay type: cell-based, herpes simplex virus type 1; settings: Human alphaherpesvirus 1, Vero, read-out: IC50 Ug/ml HSV
Description: Vero cells (ATCC #CCL-81) are plated on 96-well tissue culture plates at 3.5×10^4 cells per 100 μl tissue culture DMEM (Dulbecco's modified Eagle media) supplemented with 2% fetal bovine serum (FBS) in each well. After overnight incubation @ 37° C. (in 5% CO2) and 30 minutes prior to infection with HSV-1 (multiplicity of infection equal to 0.006), cells are either untreated, or treated with test compound (multiple concentrations) or reference standard drug control. After approximately 24 hours post-infection incubation @ 37° C. (in 5% CO2), cells are fixed for ELISA assay. The primary antibody is murine anti-HSV glycoprotein D monoclonal primary antibody and the secondary antibody is goat anti-mouse IgG linked to β-galactosidase. Thus the extent of viral replication is determined by assessing β-galactosidase activity by quantifying the generation of the 4-methyl umbelliferone fluorescent cleavage product after addition of the methyl umbelliferyl-β-D-galactoside (Sigma #M1633) substrate on a microfluorimeter (365 nm for excitation and 450 nm for emission). Antiviral activity (IC50) of the test compound is determined by comparing the flourescence obtained in absence of compound to that obtained in the presence of compound.

VZV strain Ellen = assay: VZV Antiviral (ELISA) Assay; assay type: cell-based, varicella-zoster virus; settings: Human alphaherpesvirus 3, Fibroblast, human foreskin fibroblast cells; for IC50: read-out: IC50 Ug/ml VZV; for inhibition at 10 µg/mL: read-out: % inhibition 10 ug/ml VZV, 10 ug/ml
Description: For the generation of stock VZV to be used in the assay, VZV strain Ellen (ATCC #VR-1367) is used to infect human foreskin fibroblast (HFF) cells at low multiplicity (less than 0.1) and incubated overnight at 37° C. in 5% CO2. After the overnight incubation, the mixture of uninfected and VZV-infected HFF infected cells are then harvested and added to each well of 96-well plates (3.5×10^4 cells in 100 μl DMEM supplemented with 2% FBS) which contain test compound or the reference standard drug control (in 100 μl DMEM supplemented with 2% FBS per well). These cells are incubated for three days at 37° C. in 5% CO2, then fixed for ELISA assay. The primary antibody is murine anti-VZV glycoprotein II monoclonal antibody (Applied Biosystems, Inc. #13-145-100) and the secondary antibody is goat anti-mouse IgG linked to β-galactosidase. Thus the extent of viral replication is determined by assessing β-galactosidase activity by quantifying the generation of the 4-methyl umbelliferone fluorescent cleavage product after addition of the methyl umbelliferyl-β-D-galactoside (Sigma #M1633) substrate on a microfluorimeter (365 nm for excitation and 450 nm for emission). Antiviral activity (IC50) of the test compound is determined by comparing the flourescence obtained in absence of compound to that obtained in the presence of compound.

IC50 (HSV-1; Vero cells, HSV-1)	Compound	IC50 (HCMV wild-type; human foreskin fibroblasts)	IC50 (VZV strain Ellen)	inhibition at 10 µg/mL (VZV strain Ellen)	IC50 (HCMV wild-type)	IC50 (HSV-1)
4 µg/mL (≈ 11.8 µM)	CC(=O)Nc1ccc(NC(=S)Nc2ccc(F)c(Cl)c2)cc1 [Example 902, N-{4-[3-(3-Chloro-4-fluoro-phenyl)-thioureido]-phenyl}-acetamide]	12 µg/mL (≈ 35.5 µM)	> 10 µg/mL	1%		
9 µg/mL (≈ 24.8 µM)	COc1cc(OC)c(NC(=S)Nc2ccc(NC(C)=O)cc2)cc1F [Example 198, N-{4-[3-(5-Fluoro-2,4-dimethoxy-phenyl)-thioureido]-phenyl}-acetamide]	> 50 µg/mL	> 10 µg/mL	36%		
> 50 µg/mL	COc1ccccc1NC(=S)Nc1ccc(NC(C)=O)cc1 [Example 105, N-{4-[3-(2-Methoxy-phenyl)-thioureido]-phenyl}-acetamide]	> 50 µg/mL	> 10 µg/mL	32%		
30 µg/mL (≈ 89.3 µM)	CC(=O)Nc1ccc(NC(=S)Nc2cc(Cl)ccc2O)cc1 [Example 126, N-{4-[3-(5-Chloro-2-hydroxy-phenyl)-thioureido]-phenyl}-acetamide]	20 µg/mL (≈ 59.6 µM)	> 10 µg/mL	23%		
> 50 µg/mL	CC(=O)Nc1ccc(NC(=S)Nc2ccc(C(=O)O)c(Cl)c2)cc1 [Example 898, 4-[3-(4-Acetylamino-phenyl)-thioureido]-2-chloro-benzoic acid]	> 50 µg/mL	> 10 µg/mL	0%		
> 50 µg/mL	COc1cc(N(C)C)c(NC(=S)Nc2ccc(NC(C)=O)cc2)cc1Cl [Example 227, N-{4-[3-(5-Chloro-2-dimethylamino-4-methoxy-phenyl)-thioureido]-phenyl}-acetamide]	> 50 µg/mL	> 10 µg/mL	32%		
10 µg/mL (≈ 24.1 µM)	COc1cc(OC)c(NC(=S)Nc2ccc(NC(C)=O)c(Cl)c2)cc1Cl [Example 275, N-{2-Chloro-4-[3-(5-chloro-2,4-dimethoxy-phenyl)-thioureido]-phenyl}-acetamide]	> 10 µg/mL	> 10 µg/mL	32%		
15 µg/mL (≈ 31.3 µM)	COc1cc(OCC(=O)OC(C)(C)C)c(NC(=S)Nc2ccc(NC(C)=O)cc2)cc1Cl [Example 218, {2-[3-(4-Acetylamino-phenyl)-thioureido]-4-chloro-5-methoxy-phenoxy}-acetic acid tert-butyl ester]	> 10 µg/mL	> 10 µg/mL	18%		

Second part, the compound before the results:

Compound	IC50 (HSV-1; Vero cells, HSV-1)	IC50 (HCMV wild-type; human foreskin fibroblasts)	IC50 (VZV strain Ellen)	inhibition at 10 µg/mL (VZV strain Ellen)	IC50 (HCMV wild-type)	IC50 (HSV-1)
COc1cc(OCCCC#N)c(Cl)cc1NC(=S)Nc1ccc(NC(C)=O)cc1 [Example 211, N-(4-{3-[5-Chloro-2-methoxy-4-(4-nitrilo-butoxy)-phenyl]-thioureido}-phenyl)-acetamide]	30 µg/mL (≈ 69.3 µM)	> 10 µg/mL	> 10 µg/mL	35%		
CC(=O)Nc1ccc(NC(=S)Nc2cccc([N+](=O)[O-])c2)cc1 [Example 124, N-{4-[3-(3-Nitro-phenyl)-thioureido]-phenyl}-acetamide]	50 µg/mL (≈ 151 µM)	50 µg/mL (≈ 151 µM)	> 10 µg/mL	0%		
CC(=O)Nc1ccc(NC(=S)Nc2ccccc2)cc1 [Example 814, N-[4-(3-Phenyl-thioureido)-phenyl]-acetamide]			> 10 µg/mL	15%	> 10 µg/mL	> 10 µg/mL
C=Cc1ccc(NC(=S)Nc2ccc(NC(C)=O)cc2)cc1Cl [Example 377, N-{4-[3-(3-Chloro-4-vinyl-phenyl)-thioureido]-phenyl}-acetamide]	3 µg/mL (≈ 8.67 µM)	0.8 µg/mL (≈ 2.31 µM)	> 10 µg/mL	28%		
CC(=O)Nc1ccc(NC(=S)Nc2ccc(C#N)c(Cl)c2)cc1 [Example 899, N-{4-[3-(3-Chloro-4-cyano-phenyl)-thioureido]-phenyl}-acetamide]	10 µg/mL (≈ 29 µM)	> 10 µg/mL	> 10 µg/mL	7%		
